A word on the EC50: it is the concentration giving half of the maximal effect.

Structures are written as SMILES. Where only a bound is given, the exact number is not on record here.

In experiment [1] the test system is Hippocampal Cultures. As to the kind of experiment: Neuroprotection from hydrogen peroxide (oxidative stress), propidium iodide assay. As to conditions: Rattus norvegicus, 10 μM Hydrogen Peroxide, read-out: NP from HP PI EC50. Format: cell-based. An excerpt:
(§1) Cell cultures: All compounds are screened with dissociated hippocampal cultures derived from embryonic day 18 rats as the primary test system. With this preparation, primary neurons are used to test for toxicity as well as neuroprotection in a highly relevant experimental system to epilepsy. In brief, hippocampal tissue are obtained commercially through Brain Bits (Springfield, Ill.) and cultures prepared as previously described by Brewer (Brewer, G. J. Serum-free B27/neurobasal medium supports differentiated growth of neurons from the striatum, substantia nigra, septum, cerebral cortex, cerebellum and dentate gyms, J. Neurosci. Res. 1995, 42, 674-683.). The hippocampal neurons are platted at low density (10,000 cell/well) in a 96-well format and maintained in serum-free medium consisting of Neurobasal Medium supplemented with B27 and GlutaMAX (Gibco). Pre-coated poly-L-lysine coated plates are used because of the preferential adherence and survival of hippocampal neurons on this matrix support.
(§2) Potent neuroprotection is the distinguishing characteristic that separates this program's anticonvulsants from all other commercial drugs for epilepsy. The experimental details and the rationale for the implemented assays are essential in differentiating these compounds from that of others. The central objective of all neuroprotective assays was their relevancy to excitotoxicity and oxidative stress related to epilepsy. Both the amount of glutamate and hydrogen peroxide used in the assays, as well as the time of treatment and duration of the experiment, were designed to be relevant to epilepsy. Further, all time parameters employed in these studies were empirically determined to be within the limits of reversible toxic events, yet using amounts of glutamate and hydrogen peroxide that were relevant to the disease. In regard to glutamate toxicity, a critical feature was the duration of treatment of the hippocampal neurons. The rational for using a short 5 min treatment with glutamate was based on the observation of Randall and Thayer (Randall, R. D.; Thayer, S. A. Glutamate-induced calcium transient triggers calcium overload and neurotoxicity in rat hippocampal neurons, J. Neurosci. 1992, 12, 1882-1895). […] The rationale is that this intense burst of glutamate and resulting calcium overload is relevant to seizures and therefore was important data to capture in the screening assay. The amount of glutamate (30 μM) employed in our screening was based on the basal levels of glutamate observed in microdialysis measurements of hippocampus from epileptogenic patients (Cavus et al. Decreased hippocampal volume on MRI is associated with increased extracellular glutamate in epilepsy patients, Epilepsia, 2008, 49, 1358-1366.). In regard to hydrogen peroxide, the amount employed (10 μM) was detected in the hippocampus of rats after kainate-induced status epilepticus (Jarrett et. al., Mitochondrial DNA damage and impaired base excision repair during epileptogenesis, Neurobiol. Dis. 2008, 30, 130-138). To produce neural damage and death with these amounts of glutamate and hydrogen peroxide, the cultures were changed to a medium with significant depletion of antioxidant components in the defined medium supplement B-27 just prior to treatment with the compounds. This was performed to obtain a significant and reproducible toxic signal in the hippocampal neurons and because loss of antioxidant control may be a component of epileptogenesis (Waldbaum and Patel, Mitochondria, oxidative stress and temporal lobe epilepsy, Epilepsy Res. 2010 88, 23-45.; Wu et al., Mitochondrial DNA mutation-elicited oxidative stress, oxidative damage, and altered gene expression in cultured cells of patients with MERRF syndrome, Mol. Neurobiol. 2010, 41, 256-266.). Neuroprotection studies with hydrogen peroxide were conducted with cultures that were between day 12 and day 18. Studies of neuroprotection glutamate were conducted between day 19 and day 22. […]

Experiment [2] has as its system Hippocampal Cultures. As to the kind of experiment: Neuroprotection from glutamate excitotoxicity, CFDA neuronal viability assay. In kind it is cell-based, rat. To be noted: for EC50: Rattus norvegicus, 30 μM glutamate, Hippocampal Cultures, read-out: NP from Glutamate CFDA EC50. On the procedure: Pharmacology: Hydroxyethyl sulfamides attenuate glutamate-mediated neuronal viability. As an example, compound II, shown above, is shown to attenuate a decrease in carboxyfluorescein diacetate (CFDA) produced by acute treatment with glutamate in FIG. 1. For these studies, day 20 hippocampal cultures derived from E18 rats were treated for 5 min with 30 μM glutamate. Following removal of the glutamate, cultures were treated with various concentrations of compound II and the CFDA neuronal viability assay was conducted 24 hours after the initiation of treatment. The dotted line labeled “control” represents the mean CFDA value for control culture receiving no treatment. The dotted line labeled “carisbamate” represents the mean CFDA value for the reference compound carisbamate, a putative neuroprotective, anticonvulsant. For the CFDA measurements, RFU is the abbreviation for relative fluorescent units. The reference anticonvulsant compound carisbamate was tested at 100 μM, as lower concentrations were ineffective.
as §1
(§3) Carboxyfluorescein (CFDA) was used a vital stain for all cell toxicity and neuroprotection studies. With the use of the CytoFluor fluorimeter, the CFDA assay was employed to assess the viability of neurons. CFDA is a dye that becomes fluorescent upon cell entry and cleavage by cytosolic esterases (Petroski, R. E.; Geller, H. M Selective labeling of embryonic neurons cultures on astrocyte monolayers with 5(6)-carboxyfluorescein diacetate (CFDA). J. Neurosci. Methods 1994, 52, 23-32.). Neuronal specificity is obtained relative to astrocytes because the cleaved dye is extruded extracellularly by glia with time, while dye in neurons remains intracellular. […] To further assess the culture responses, a propidium iodide method was used as previously described (Sarafian, T. A.; Kouyoumjian, S.; Tashkin, D.; Roth, M. D. Synergistic cytotoxicity of 9-tetrahydrocannabianol and butylated hydroxyanisole, Tox. Letters, 2002. 133, 171-179.) to measure the number of dead cells. Propidium iodide becomes fluorescent when binding to the DNA of dead cells. Cultures were treated on day 2 with the test agent and then the two assays were conducted after a […] test period. For all assays, a 96-well format was used. For the screen, log concentration-effect studies were conducted from 10 nM to 1 mM with 8 replications. The duration of the test period was five days. Cultures were given a complete change of medium prior to the initiation of the treatment period.
Potent neuroprotection is the distinguishing characteristic that separates this program's anticonvulsants from all other commercial drugs for epilepsy. The experimental details and the rationale for the implemented assays are essential in differentiating these compounds from that of others. The central objective of all neuroprotective assays was their relevancy to excitotoxicity and oxidative stress related to epilepsy. […]

Experiment [3] has as its system Hippocampal Cultures. As to the kind of experiment: Neuroprotection from hydrogen peroxide (oxidative stress), CFDA assay. In kind it is cell-based. To be noted: Rattus norvegicus, 10 μM Hydrogen Peroxide, read-out: NP from HP CFDA EC50.
Excerpt: as §1, §2

The subject of experiment [4] is Hippocampal Cultures. As to the kind of experiment: Neuroprotection from glutamate excitotoxicity, propidium iodide cell death assay. Format: cell-based, rat. To be noted: for EC50: Rattus norvegicus, Hippocampal Cultures, read-out: NP from Glutamate PI EC50. On the procedure:
Hydroxyethyl sulfamides attenuate glutamate-mediated cell death: As an example of HES compounds that prevent cell death associated with glutamate, compound II is shown to attenuate an increase in propidium iodide (PI) produced by acute treatment with glutamate in FIG. 4. For these studies, day 20 hippocampal cultures derived from E18 rats were treated for 5 min with 30 μM glutamate. Following removal of the glutamate, cultures were treated with various concentrations of compound II and the propidium iodide method for measuring cell death was conducted 24 hours after the initiation of treatment. The dotted line labeled “control” represents the mean PI value for control culture receiving no treatment. The dotted line labeled “carisbamate” represents the mean PI value for the reference compound carisbamate, a putative neuroprotective anticonvulsant. The amount of carisbamate used was 100 μM and this concentration had the maximally observed efficacy for this compound. RFU is an abbreviation for relative fluorescent units. Day 15 is the number of days that the cultures were maintained in vitro before conducting the experiment.
as §1, §3
Potent neuroprotection is the distinguishing characteristic that separates this program's anticonvulsants from all other commercial drugs for epilepsy. The experimental details and the rationale for the implemented assays are essential in differentiating these compounds from that of others. […]

The mark [5] stands for this setting: day 20 hippocampal cultures, 5 min 30 μM glutamate, CFDA assay 24 hours after initiation of treatment (FIG. 1-3).

`NS(=O)(=O)NCC(O)c1ccccc1F` (stereo not drawn) [Example 6, 2-(2-fluorophenyl)-2-hydroxyethylsulfamide]: the EC50 with Hippocampal Cultures [1] was determined as 0.01 µM; in the experiment with Hippocampal Cultures [2], 100 µM; in the experiment on Hippocampal Cultures [3], 10 µM; in the experiment with Hippocampal Cultures [4] (30 μM glutamate) it was 10 µM.

For the molecule `NS(=O)(=O)NC[C@H](O)c1ccccc1Cl` [Example 13, (R)-2-(2-Chlorophenyl)-2-hydroxyethylsulfamide], the EC50 in the experiment with Hippocampal Cultures [1] was greater than 300 µM; in the experiment with Hippocampal Cultures [2] it was 0.01 µM; in the experiment with Hippocampal Cultures [3], 300 µM; in the experiment with Hippocampal Cultures [4] (30 μM glutamate), 10 µM.

`NS(=O)(=O)NCC(O)c1csc2ccccc12` (stereo not drawn) [Example 7, 2-(benzothiophen-3-yl)-2-hydroxyethylsulfamide]: the EC50 in the experiment on Hippocampal Cultures [2] was 30 µM; in the experiment with Hippocampal Cultures [4] (30 μM glutamate), greater than 300 µM.

With `CC(O)(CNS(N)(=O)=O)c1ccccc1Cl` (stereo not drawn) [Example 8, 2-(2-chlorophenyl)-2-methyl-2-hydroxyethylsulfamide], the EC50 in the experiment with Hippocampal Cultures [1] was 0.1 µM; in the experiment with Hippocampal Cultures [2] it was greater than 300 µM; in the experiment with Hippocampal Cultures [3] it was 100 µM; in the experiment on Hippocampal Cultures [4] (30 μM glutamate), 300 µM.

For the molecule `NS(=O)(=O)NCC(O)c1cccc(Cl)c1` (stereo not drawn) [Example 2, 2-(3-Chlorophenyl)-2-hydroxyethylsulfamide], the EC50 in the experiment on Hippocampal Cultures [1] was 100 µM; in the experiment on Hippocampal Cultures [2] it was greater than 300 µM; in the experiment on Hippocampal Cultures [3], 100 µM; in the experiment on Hippocampal Cultures [4] (30 μM glutamate), greater than 300 µM.

As to `NS(=O)(=O)NCC(O)c1csc2ccccc12` (stereo not drawn) [compound IV], the “effect on glutamate-mediated decrease in neuronal viability (CFDA)” value (“effect on glutamate-mediated decrease” below) in the experiment on Hippocampal Cultures [2] (setting [5]) is “efficacious”.

Regarding `NS(=O)(=O)NCC(O)c1cc2ccccc2s1` (stereo not drawn) [Example 4, 2-(benzothiophen-2-yl)-2-hydroxyethylsulfamide], the EC50 with Hippocampal Cultures [1] came out at 30 µM; in the experiment with Hippocampal Cultures [2], 100 µM; in the experiment with Hippocampal Cultures [3] it was 100 µM; in the experiment with Hippocampal Cultures [4] (30 μM glutamate), 10 µM.

As for `NS(=O)(=O)NCC(O)c1ccccc1Cl` (stereo not drawn) [Example 1, 2-(2-Chlorophenyl)-2-hydroxyethylsulfamide], the EC50 in the experiment with Hippocampal Cultures [2] is 30 µM; in the experiment with Hippocampal Cultures [4] (30 μM glutamate) it was 100 µM.

Regarding `NS(=O)(=O)NCC(O)c1ccccc1Cl` (stereo not drawn) [compound II], the “effect on glutamate-mediated decrease” value in the experiment with Hippocampal Cultures [2] (setting [5]) is “attenuate”. In addition, the “effect on glutamate-mediated increase in cell death (propidium iodide)” value with Hippocampal Cultures [4] (day 20 hippocampal cultures, 5 min 30 μM glutamate, PI 24 hours after initiation of treatment (FIG. 4)) is “attenuate”.

Consider `NS(=O)(=O)NCC(O)c1ccccc1F` (stereo in doubt) [Example 10, (S)-2-(2-Fluorophenyl)-2-hydroxyethylsulfamide], for which the EC50 came out at 0.1 µM in the experiment with Hippocampal Cultures [1], 300 µM with Hippocampal Cultures [2], 1 µM in the experiment on Hippocampal Cultures [3] and 0.1 µM with Hippocampal Cultures [4] (30 μM glutamate).

Turning to `NS(=O)(=O)N1CC(O)(c2csc3ccccc23)C1` [Example 9, 3-Benzo[b]thiophen-3-yl-3-hydroxy-azetidine-1-sulfonamide], the EC50 in the experiment with Hippocampal Cultures [1] is greater than 300 µM; with Hippocampal Cultures [2], 0.1 µM; in the experiment with Hippocampal Cultures [3], greater than 300 µM; with Hippocampal Cultures [4] (30 μM glutamate), 1 µM.

Consider `NC(=O)OC[C@@H](O)c1ccccc1Cl` [carisbamate, reference compound], for which the “effect on glutamate-mediated decrease” value in the experiment with Hippocampal Cultures [2] (concentrations lower than 100 μM) is “ineffective”. For the same molecule, in the experiment with Hippocampal Cultures [4] (hippocampal cultures, 30 μM glutamate), the “concentration with the maximally observed efficacy (propidium iodide)” value is 100 µM.

On to `NS(=O)(=O)NC[C@@H](O)c1ccccc1Cl` [Example 12, (S)-2-(2-Chlorophenyl)-2-hydroxyethylsulfamide], for which the half-maximal effective concentration (EC50) with Hippocampal Cultures [1] was greater than 300 µM; with Hippocampal Cultures [2], 30 µM; with Hippocampal Cultures [3], 30 µM; in the experiment on Hippocampal Cultures [4] (30 μM glutamate), 10 µM.

With `NS(=O)(=O)NCC(O)c1cc(Cl)ccc1Cl` (stereo not drawn) [Example 5, 2-(2,5-dichlorophenyl)-2-hydroxyethylsulfamide], the EC50 in the experiment on Hippocampal Cultures [1] is greater than 300 µM; in the experiment with Hippocampal Cultures [2] it was greater than 300 µM; in the experiment with Hippocampal Cultures [3], greater than 300 µM; in the experiment on Hippocampal Cultures [4] (30 μM glutamate), 30 µM.

For the molecule `NS(=O)(=O)NCC(O)c1ccccc1F` (stereo in doubt) [Example 11, (R)-3-(2-Fluorophenyl)-2-hydroxyethylsulfamide], the EC50 in the experiment on Hippocampal Cultures [1] and in the experiment on Hippocampal Cultures [3] was 300 µM in each case.

For `NS(=O)(=O)NCC(O)c1ccsc1` (stereo not drawn) [Example 3, 2-(thiophen-3-yl)-2-hydroxyethylsulfamide], the EC50 in the experiment with Hippocampal Cultures [1] was 30 µM; with Hippocampal Cultures [2], greater than 300 µM; in the experiment with Hippocampal Cultures [3] it was 30 µM; with Hippocampal Cultures [4] (30 μM glutamate), 30 µM.
